US20230165872A1, “COMBINATION OF BCMA-DIRECTED T CELL THERAPY AND AN IMMUNOMODULATORY COMPOUND” (Juno Therapeutics, Inc., priority 2020, published 2023)

Test system: OPM2 (multiple myeloma) cells
Assay: Murine orthotopic OPM-2 tumor model (sensitive), anti-BCMA CAR T cells plus Compound A
Type: in vivo, mouse
Settings: for tumor burden (BLI) versus anti-BCMA CAR T cells alone: combination with 0.5×10^6 CAR T cells, 1 or 3 mg/kg oral, FIG. 6A; for survival versus anti-BCMA CAR T cells alone: FIG. 6B
Experimental: Anti-tumor effects of anti-BCMA CAR T cells, alone and in combination with concurrent or delayed administration of Compound A (iberdomide, (S)-3-[4-(4-morpholin ylmethyl-benzyloxy)-1-oxo-1,3-dihydro-isoindol-2-yl]-piperidine-2,6-dione), were assessed in disseminated tumor models. The combinatorial effects were assessed in both tumor models sensitive to and resistant to the immunomodulatory compound. The anti-BCMA CAR T cells used in the study were produced as described in Example 1.
The effects of anti-BCMA CAR-T cells in combination with Compound A was assessed in a murine orthotopic tumor model using OPM-2 cells, which is an tumor model sensitive to the immunomodulatory compound. Mice (NOD.Cg-Prkdc^scidIL-2rg^tm1Wj1/SzJ mice (NSG; Jackson Labs)) were injected intravenously (i.v.) with 2×10^6 OPM2 (multiple myeloma) cells transfected with firefly luciferase (OPM2-ffluc). Tumor engraftment was allowed to occur for 13 days prior to staging (14 days before CAR-T cell administration) and verified using bioluminescence imaging.
In one study, mice were administered Compound A (1 mg/kg or 3 mg/kg) via oral administration once a day starting from the day before administration of 0.5×10^6 anti-BCMA CAR T cells, and administration of Compound A was continued once a day until 32 days post-CAR T cell administration (concurrent dosing). In another study, mice were administered 0.5×10^6 anti-BCMA CAR T cells, and then Compound A (1 mg/kg or 3 mg/kg) was administered via oral administration once a day starting 12 days after anti-CAR T cell administration, which was after the peak of CAR-expressing T cell expansion, and administration was continued for 21 days until 32 days post-CAR T cell administration (delayed dosing).
For bioluminescence imaging (BLI), mice received intraperitoneal (i.p.) injections of luciferin substrate (CaliperLife Sciences, Hopkinton, Mass.) resuspended in PBS (15 μg/g body weight). The average radiance (p/s/cm^2/sr) was determined. Survival of mice treated as described above were assessed and compared over time post-infusion of CAR-expressing T cells. Survival curves were generated using the Kaplan-Meier method (GraphPad Prism 7.0, GraphPad Software, La Jolla).
The numbers of CD3+ CAR T cells were determined in the blood at day 6 and day 14 by flow cytometry using antibodies directed against CD3 and the surrogate marker on the CAR-expressing cells.

SMILES: O=C1CC[C@H](N2Cc3c(OCc4ccc(CN5CCOCC5)cc4)cccc3C2=O)C(=O)N1 [Compound A, (S)-3-[4-(4-morpholin-4-ylmethyl-benzyloxy)-1-oxo-1,3-dihydro-isoindol-2-yl]-piperidine-2,6-dione]
- single agent antitumor activity (Compound A alone, 1 or 3 mg/kg oral once a day): some single agent antitumor activity
- tumor burden (BLI) versus anti-BCMA CAR T cells alone (concurrent dosing): reduce tumor burden
- tumor burden (BLI) versus anti-BCMA CAR T cells alone (delayed dosing from day 12): reduce tumor burden
- survival versus anti-BCMA CAR T cells alone (combination, concurrent dosing): improve survival
- numbers of CD3+ CAR+ T cells in the blood (combination, concurrent regimen, day 6 and day 14, FIG. 6C): trend towards increased numbers
- survival versus anti-BCMA CAR T cells alone (combination, delayed dosing): improve survival
